Data from article PMC7156458, “Synthetic biology based construction of biological activity-related library of fungal decalin-containing diterpenoid pyrones” (Nature Communications, 2020).

Biological target: Aβ42 (Homo sapiens, UniProt P05067)
Assay: Th-T (thioflavin-T) assay of Aβ42 aggregation
Assay type: biochemical
Details: for Th-T fluorescence of Aβ42 (sheet Fig. 7a), mean of three wells: head suffix _50 (concentration 50); for Th-T assay plate reading, mean of three wells (Supplementary Fig. 47): source data, Ab alone and No Ab as controls; for Th-T fluorescence, mean of three wells: Supplementary Fig. 47 source data

Sequence of Aβ42 (P05067 672-713): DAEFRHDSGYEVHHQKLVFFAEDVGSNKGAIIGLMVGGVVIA

SMILES: C=C1CCC2C(C)(CCC=C(C)C)C(O)CCC2(C)C1Cc1c(OC)oc(CO)c(C)c1=O (stereo not drawn) [Compound 12]
- Th-T fluorescence of Aβ42 (sheet Fig. 7a), mean of three wells (reading M73): 1.414
- Th-T fluorescence of Aβ42 (sheet Fig. 7a), mean of three wells (reading M74): 1.457
- Th-T fluorescence of Aβ42 (sheet Fig. 7a), mean of three wells (reading M75): 1.421
- Th-T fluorescence of Aβ42 (sheet Fig. 7a), mean of three wells (reading M76): 1.415
- Th-T fluorescence of Aβ42 (sheet Fig. 7a), mean of three wells (reading M77): 1.436
- Th-T fluorescence of Aβ42 (sheet Fig. 7a), mean of three wells (reading M78): 1.437
- Th-T fluorescence of Aβ42 (sheet Fig. 7a), mean of three wells (reading M79): 1.425
- Th-T fluorescence of Aβ42 (sheet Fig. 7a), mean of three wells (reading M80): 1.423
- Th-T fluorescence of Aβ42 (sheet Fig. 7a), mean of three wells (reading M81): 1.42
- Th-T fluorescence of Aβ42 (sheet Fig. 7a), mean of three wells (reading M82): 1.419
- Th-T fluorescence of Aβ42 (sheet Fig. 7a), mean of three wells (reading M83): 1.439
- Th-T fluorescence of Aβ42 (sheet Fig. 7a), mean of three wells (reading M84): 1.415
- Th-T assay plate reading, mean of three wells (Supplementary Fig. 47) (measurement M1): 0.2937
- Th-T assay plate reading, mean of three wells (Supplementary Fig. 47) (measurement M2): 0.2498
- Th-T assay plate reading, mean of three wells (Supplementary Fig. 47) (measurement M3): 0.2612
- Th-T assay plate reading, mean of three wells (Supplementary Fig. 47) (measurement M4): 0.2666
- Th-T assay plate reading, mean of three wells (Supplementary Fig. 47) (measurement M5): 0.2891
- Th-T assay plate reading, mean of three wells (Supplementary Fig. 47) (measurement M6): 0.324
- Th-T assay plate reading, mean of three wells (Supplementary Fig. 47) (measurement M7): 0.6238
- Th-T assay plate reading, mean of three wells (Supplementary Fig. 47) (measurement M8): 1.342
- Th-T assay plate reading, mean of three wells (Supplementary Fig. 47) (measurement M9): 1.95
- Th-T assay plate reading, mean of three wells (Supplementary Fig. 47) (measurement M10): 2.214
- Th-T assay plate reading, mean of three wells (Supplementary Fig. 47) (measurement M11): 2.313
- Th-T assay plate reading, mean of three wells (Supplementary Fig. 47) (measurement M12): 2.311
- Th-T assay plate reading, mean of three wells (Supplementary Fig. 47) (measurement M13): 2.302
- Th-T assay plate reading, mean of three wells (Supplementary Fig. 47) (measurement M14): 2.328
- Th-T assay plate reading, mean of three wells (Supplementary Fig. 47) (measurement M15): 2.358
- Th-T assay plate reading, mean of three wells (Supplementary Fig. 47) (measurement M16): 2.3929
- Th-T fluorescence, mean of three wells (Fig. 7a) (reading M107, compound at 10 (head suffix _10)): 2.747
- Th-T fluorescence, mean of three wells (Fig. 7a) (reading M107, compound at 20 (head suffix _20)): 2.1149
- Th-T fluorescence, mean of three wells (Fig. 7a) (reading M107, compound at 50 (head suffix _50)): 1.42
- Th-T fluorescence, mean of three wells (Fig. 7a) (reading M108, compound at 10 (head suffix _10)): 2.748
- Th-T fluorescence, mean of three wells (Fig. 7a) (reading M108, compound at 20 (head suffix _20)): 2.099
- Th-T fluorescence, mean of three wells (Fig. 7a) (reading M108, compound at 50 (head suffix _50)): 1.438
- Th-T fluorescence, mean of three wells (Fig. 7a) (reading M109, compound at 10 (head suffix _10)): 2.719
- Th-T fluorescence, mean of three wells (Fig. 7a) (reading M109, compound at 20 (head suffix _20)): 2.112
- Th-T fluorescence, mean of three wells (Fig. 7a) (reading M109, compound at 50 (head suffix _50)): 1.43
- Th-T fluorescence, mean of three wells (Fig. 7a) (reading M110, compound at 10 (head suffix _10)): 2.701
- Th-T fluorescence, mean of three wells (Fig. 7a) (reading M110, compound at 20 (head suffix _20)): 2.0943
- Th-T fluorescence, mean of three wells (Fig. 7a) (reading M110, compound at 50 (head suffix _50)): 1.437
- Th-T fluorescence, mean of three wells (Fig. 7a) (reading M111, compound at 10 (head suffix _10)): 2.678
- Th-T fluorescence, mean of three wells (Fig. 7a) (reading M111, compound at 20 (head suffix _20)): 2.0886
- Th-T fluorescence, mean of three wells (Fig. 7a) (reading M111, compound at 50 (head suffix _50)): 1.44
- Th-T fluorescence, mean of three wells (Fig. 7a) (reading M112, compound at 10 (head suffix _10)): 2.674
- Th-T fluorescence, mean of three wells (Fig. 7a) (reading M112, compound at 20 (head suffix _20)): 2.104
- Th-T fluorescence, mean of three wells (Fig. 7a) (reading M112, compound at 50 (head suffix _50)): 1.449
- Th-T fluorescence, mean of three wells (Fig. 7a) (reading M113, compound at 10 (head suffix _10)): 2.652
- Th-T fluorescence, mean of three wells (Fig. 7a) (reading M113, compound at 20 (head suffix _20)): 2.1068
- Th-T fluorescence, mean of three wells (Fig. 7a) (reading M113, compound at 50 (head suffix _50)): 1.457
- Th-T fluorescence, mean of three wells (Fig. 7a) (reading M114, compound at 10 (head suffix _10)): 2.644
- Th-T fluorescence, mean of three wells (Fig. 7a) (reading M114, compound at 20 (head suffix _20)): 2.09
- Th-T fluorescence, mean of three wells (Fig. 7a) (reading M114, compound at 50 (head suffix _50)): 1.449
- Th-T fluorescence, mean of three wells (Fig. 7a) (reading M115, compound at 10 (head suffix _10)): 2.617
- Th-T fluorescence, mean of three wells (Fig. 7a) (reading M115, compound at 20 (head suffix _20)): 2.12
- Th-T fluorescence, mean of three wells (Fig. 7a) (reading M115, compound at 50 (head suffix _50)): 1.466
- Th-T fluorescence, mean of three wells (Fig. 7a) (reading M116, compound at 10 (head suffix _10)): 2.617
- Th-T fluorescence, mean of three wells (Fig. 7a) (reading M116, compound at 20 (head suffix _20)): 2.1099
- Th-T fluorescence, mean of three wells (Fig. 7a) (reading M116, compound at 50 (head suffix _50)): 1.496
- Th-T fluorescence, mean of three wells (Fig. 7a) (reading M117, compound at 10 (head suffix _10)): 2.5929
- Th-T fluorescence, mean of three wells (Fig. 7a) (reading M117, compound at 20 (head suffix _20)): 2.13
- Th-T fluorescence, mean of three wells (Fig. 7a) (reading M117, compound at 50 (head suffix _50)): 1.473
- Th-T fluorescence, mean of three wells (Fig. 7a) (reading M118, compound at 10 (head suffix _10)): 2.576
- Th-T fluorescence, mean of three wells (Fig. 7a) (reading M118, compound at 20 (head suffix _20)): 2.113
- Th-T fluorescence, mean of three wells (Fig. 7a) (reading M118, compound at 50 (head suffix _50)): 1.488
- Th-T fluorescence, mean of three wells (Fig. 7a) (reading M119, compound at 10 (head suffix _10)): 2.572
- Th-T fluorescence, mean of three wells (Fig. 7a) (reading M119, compound at 20 (head suffix _20)): 2.161
- Th-T fluorescence, mean of three wells (Fig. 7a) (reading M119, compound at 50 (head suffix _50)): 1.496
- Th-T fluorescence, mean of three wells (Fig. 7a) (reading M120, compound at 10 (head suffix _10)): 2.541
- Th-T fluorescence, mean of three wells (Fig. 7a) (reading M120, compound at 20 (head suffix _20)): 2.1524
- Th-T fluorescence, mean of three wells (Fig. 7a) (reading M120, compound at 50 (head suffix _50)): 1.517
- Th-T fluorescence, mean of three wells (Fig. 7a) (reading M121, compound at 10 (head suffix _10)): 2.53
- Th-T fluorescence, mean of three wells (Fig. 7a) (reading M121, compound at 20 (head suffix _20)): 2.137
- Th-T fluorescence, mean of three wells (Fig. 7a) (reading M121, compound at 50 (head suffix _50)): 1.531
- Th-T fluorescence, mean of three wells (Fig. 7a) (reading M122, compound at 10 (head suffix _10)): 2.517
- Th-T fluorescence, mean of three wells (Fig. 7a) (reading M122, compound at 20 (head suffix _20)): 2.124
- Th-T fluorescence, mean of three wells (Fig. 7a) (reading M122, compound at 50 (head suffix _50)): 1.501
- Th-T fluorescence, mean of three wells (Fig. 7a) (reading M123, compound at 10 (head suffix _10)): 2.493
- Th-T fluorescence, mean of three wells (Fig. 7a) (reading M123, compound at 20 (head suffix _20)): 2.112
- Th-T fluorescence, mean of three wells (Fig. 7a) (reading M123, compound at 50 (head suffix _50)): 1.514
- Th-T fluorescence, mean of three wells (Fig. 7a) (reading M124, compound at 10 (head suffix _10)): 2.48
- Th-T fluorescence, mean of three wells (Fig. 7a) (reading M124, compound at 20 (head suffix _20)): 2.17
- Th-T fluorescence, mean of three wells (Fig. 7a) (reading M124, compound at 50 (head suffix _50)): 1.559
- Th-T fluorescence, mean of three wells (Fig. 7a) (reading M125, compound at 10 (head suffix _10)): 2.466
- Th-T fluorescence, mean of three wells (Fig. 7a) (reading M125, compound at 20 (head suffix _20)): 2.169
- Th-T fluorescence, mean of three wells (Fig. 7a) (reading M125, compound at 50 (head suffix _50)): 1.553
- Th-T fluorescence, mean of three wells (Fig. 7a) (reading M126, compound at 10 (head suffix _10)): 2.458
- Th-T fluorescence, mean of three wells (Fig. 7a) (reading M126, compound at 20 (head suffix _20)): 2.184
- Th-T fluorescence, mean of three wells (Fig. 7a) (reading M126, compound at 50 (head suffix _50)): 1.559
- Th-T fluorescence, mean of three wells (Fig. 7a) (reading M127, compound at 10 (head suffix _10)): 2.439
- Th-T fluorescence, mean of three wells (Fig. 7a) (reading M127, compound at 20 (head suffix _20)): 2.22
- Th-T fluorescence, mean of three wells (Fig. 7a) (reading M127, compound at 50 (head suffix _50)): 1.57
- Th-T fluorescence, mean of three wells (Fig. 7a) (reading M128, compound at 10 (head suffix _10)): 2.428
- Th-T fluorescence, mean of three wells (Fig. 7a) (reading M128, compound at 20 (head suffix _20)): 2.151
- Th-T fluorescence, mean of three wells (Fig. 7a) (reading M128, compound at 50 (head suffix _50)): 1.57
- Th-T fluorescence, mean of three wells (time-course reading M97): 2.083
- Th-T fluorescence, mean of three wells (time-course reading M98): 2.088
- Th-T fluorescence, mean of three wells (time-course reading M99): 2.073
- Th-T fluorescence, mean of three wells (time-course reading M100): 2.078
- Th-T fluorescence, mean of three wells (time-course reading M101): 2.074
- Th-T fluorescence, mean of three wells (time-course reading M102): 2.082
- Th-T fluorescence, mean of three wells (time-course reading M103): 2.066
- Th-T fluorescence, mean of three wells (time-course reading M104): 2.071
- Th-T fluorescence, mean of three wells (time-course reading M105): 2.058
- Th-T fluorescence, mean of three wells (time-course reading M106): 2.067
- Th-T fluorescence, mean of three wells (time-course reading M107): 2.067
- Th-T fluorescence, mean of three wells (time-course reading M108): 2.064
- Th-T fluorescence, mean of three wells (time-course reading M109): 2.047
- Th-T fluorescence, mean of three wells (time-course reading M110): 2.071
- Th-T fluorescence, mean of three wells (time-course reading M111): 2.087
- Th-T fluorescence, mean of three wells (time-course reading M112): 2.064
- Th-T fluorescence, mean of three wells (time-course reading M113): 2.068
- Th-T fluorescence, mean of three wells (time-course reading M114): 2.053
- Th-T fluorescence, mean of three wells (time-course reading M115): 2.069
- Th-T fluorescence, mean of three wells (time-course reading M116): 2.057
